How the values were obtained:
[1] = Serum morphine and metabolites by UPLC-MS/MS after s.c. morphine; conditions: rat, sc, 4 mg/kg
opioid receptors = conditions: ref Lewis et al., 2010; Doyle & Murphy, 2018; cited from earlier work

| Structure (SMILES) | concentration at 4.5 h [1] | affinity for opioid receptors (opioid receptors) |
| --- | --- | --- |
| CN1CC[C@]23c4c5ccc(O)c4O[C@H]2[C@@H](O[C@@H]2O[C@H](C(=O)O)[C@@H](O)[C@H](O)[C@H]2O)C=C[C@H]3[C@H]1C5 [Morphine-6-glucuronide, morphine-6-glucuronide] | < 1 ng/mL |  |
| CN1CC[C@]23c4c5ccc(O[C@@H]6O[C@H](C(=O)O)[C@@H](O)[C@H](O)[C@H]6O)c4O[C@H]2[C@@H](O)C=C[C@H]3[C@H]1C5 [Morphine-3-glucuronide, morphine-3-glucuronide] |  | no affinity |

From publication PMC8437142 (The Journal of physiology, 2021)
